Source: patent US11123398B2, “Chemotherapeutic combinations of cationic antimicrobial peptides and chemotherapeutics” (LYTIX BIOPHARMA AS, priority 2014, dated 2021)
Non-standard residues stand in square brackets, D forms with d. Residues, ends and D or L forms follow the SMILES beside them. Bip = N[C@@H](Cc1ccc(-c2ccccc2)cc1)C(=O)O; Dip = N[C@H](C(=O)O)C(c1ccccc1)c1ccccc1

Assays:
A20 lymphoma = assay: LTX-315 with metronomic CY in A20 lymphoma model; assay type: in vivo, Balb/c mice; conditions: metronomic CY, single i.p. 2 mg on day 4
Description: Tumor cells were harvested, washed in RPMI-1640 and injected intradermally (i.d.) into the right side of the abdomen in Balb/c mice (5×10^6 A20 cells per mouse/50 μl RPMI-1640). When animals obtained palpable tumors (20-30 mm^2) animals were injected i.p. with a single dose of CY (day 4) dissolved in saline (2.0 mg CY/500 μl saline). […] Tumor size was measured using an electronic caliper and expressed as the area of an ellipse [(maximum dimension/2)×(minimum dimension/2)×π]. Animals were then euthanized when the product of the perpendicular tumor dimensions reached 130 mm^2 or when tumor ulceration developed.

spleen cells = conditions: cited from earlier work
Hep G2 cell line = assay type: cell-based, human; conditions: 4 h
Description: (§1) Tumor cells were plated in 96-well flat-bottom microtitration plates (Nunc, Dutscher, Brumath, France) and incubated at 37° C. for 24 hours before treatment in 190 μl of drug-free culture medium supplemented or not with 10% FBS for adherent or suspension growing cell lines, respectively.
(§2) The adherent cell lines were washed once with 200 μl FBS-free culture medium before treatment. Tumor cells were incubated for 4 hours with 10 concentrations of compounds in ¼ dilution step with a top dose of 400 μM (range 4×10^−4 to 4×10^−10 M), with 1% (final concentration) Triton X-100 as positive control and FBS-free culture medium as negative control. The cells (190 μl) were incubated in a 200 μl final volume of FBS-free culture medium containing test substances at 37° C. under 5% CO2.
(§3) Three independent experiments were performed, each concentration being tested in quadruplicate. Control cells were treated with vehicle alone. At the end of treatments, the cytotoxic activity was evaluated by a MTS assay (see § 3.3.).
(§4) Like MTT, MTS is bioreduced by cells into a formazan product that is directly soluble in culture medium without processing, unlike MTT.
(§5) At the end of the cells treatment, 40 μl of a 0.22 μm filtered freshly combined solution of MTS (20 ml at 2 mg/ml, Ref G1111, Batch 235897, Exp March 2009, Promega, Charbonnières, France) and PMS (1 ml at 0.92 mg/ml, Ref P9625, Batch 065K0961, Sigma) in Dulbecco's Phosphate Buffered Saline (DPBS, Ref 17-513Q, Batch 6MB0152, Cambrex), were added in each well. Culture plates were incubated for 2 h at 37° C. Absorbency (OD) were measured at 490 nm in each well using VICTOR^3™ 1420 multilabeled counter (Wallac, PerkinElmer, Courtaboeuf, France).
(§6) IC50: drug concentration to obtain a 50% inhibition of cell proliferation.
(§7) The dose-response curves were plotted using XLFit 3 (IDBS, United Kingdom). The IC50 determination values were calculated using the XLFit 3 software from semi-log curves. Individual IC50 determination values as well as mean and SD values were generated.

T-47D cell line = assay type: cell-based, human; conditions: 4 h
Description: as §1, §2, §3, §4, §5, §6, §7

[1] = tested on: panel of 37 human cancer cell lines; assay type: cell-based; conditions: for IC50: 4 h; for IC50 range against 37 human cancer cell lines: conclusion
Description: as §2, with “Tumor cells were incubated for 4 hours with 10 concentrations of” left out
as §3, §4, §5, §6, §7

HL-60/ADR = assay: MTS cytotoxicity assay, HL-60/ADR; assay type: cell-based, human; conditions: IC50 resistant / IC50 sensitive line; doxorubicin resistance
Description: as §1, §2, §3, §4, §5, §6, §7
(§8) Resistance index was calculated using the following formula: […]
(§9) Resistance index was calculated for each compound for each couple of sensitive and resistant cell lines. Individual resistance index was calculated when IC50 values of both sensitive and corresponding resistant cell lines were determined within same experiment. In addition, resistance index was also calculated ratio of mean IC50 values obtained during three independent experiments.

MCF-7/mdr = assay: MTS cytotoxicity assay, MCF-7/mdr; assay type: cell-based, human; conditions: IC50 resistant / IC50 sensitive line; doxorubicin resistance
Description: as §1, §2, §3, §4, §5, §6, §7, §8, §9

IGROV-1/CDDP = assay: MTS cytotoxicity assay, IGROV-1/CDDP; assay type: cell-based, human; conditions: IC50 resistant / IC50 sensitive line; cisplatin resistance
Description: as §1, §2, §3, §4, §5, §6, §7, §8, §9

Raji cell line = assay type: cell-based, human; conditions: 4 h
Description: (§10) Tumor cells were plated in 96-well flat-bottom microtitration plates (Nunc, Dutscher, Brumath, France) and incubated at 37° C. for 24 hours before treatment in 190 μl of drug-free and FBS-free culture medium.
as §2, with “Tumor” for “The adherent cell lines were washed once with 200 μl FBS-free culture medium before treatment. Tumor”, “[…]” for “4×10^−10”
(§11) Three independent experiments were performed, each concentration being issued from quadruplicate. Control cells were treated with vehicle alone. At the end of treatments, the cytotoxic activity was evaluated by a MTS assay (see § 3.3 below).
as §4, §5
(§12) 4.1. IC50 Data was Determined as in Example 1

U-937 cell line = assay type: cell-based, human; conditions: 4 h
Description: as §10
as §2, with “Tumor” for “The adherent cell lines were washed once with 200 μl FBS-free culture medium before treatment. Tumor”, “[…]” for “4×10^−10”
as §11, §4, §5, §12

[2] = tested on: panel of 10 lymphoma cell lines; assay type: cell-based, human; conditions: conclusion
Description: as §10
[…] compounds in ¼ dilution step with a top dose of 400 μM (range 4×10^−4 to […]), with 1% (final concentration) Triton X-100 as positive control and FBS-free culture medium as negative control. The cells (190 μl) were incubated in a 200 μl final volume of FBS-free culture medium containing test substances at 37° C. under 5% CO2.
as §11, §4, §5, §12

RPMI 8226 cell line = assay type: cell-based, human; conditions: 4 h
Description: as §1, §2, §3, §4, §5, §6, §7

U-87 MG cell line = assay type: cell-based, human; conditions: 4 h
Description: as §1, §2, §3, §4, §5, §6, §7

CCRF-CEM/VLB = assay: MTS cytotoxicity assay, CCRF-CEM/VLB; assay type: cell-based, human; conditions: IC50 resistant / IC50 sensitive line
Description: as §1
as §2, with “The cells (190 μl) were incubated in a 200 μl final volume of FBS-free culture medium containing test substances at 37° C. under 5% CO2.” left out
Three independent experiments were performed, each concentration being tested in quadruplicate. […] At the end of treatments, the cytotoxic activity was evaluated by a MTS assay (see § 3.3.). […]
as §5, with “Culture plates were incubated for 2 h at 37° C.” left out, “France). […]” for “France).”
as §8

Ramos cell line = assay type: cell-based, human; conditions: 4 h
Description: as §10
Tumor cells were incubated for 4 hours with 10 concentrations of compounds in ¼ dilution step with a top dose of 400 μM (range 4×10^−4 to […]), with 1% (final concentration) Triton X-100 as positive control and FBS-free culture medium as negative control. The cells (190 μl) were incubated in a 200 μl final volume of FBS-free culture medium containing test substances at 37° C. under 5% CO2.
as §11, §4, §5, §12

IC50 (Hep G2 cell line) | IC50 (T-47D cell line) | IC50 [1] | IC50 range against 37 human cancer cell lines [1] | IC50 (Raji cell line) | IC50 (U-937 cell line) | IC50 range against 10 human lymphoma cell lines [2] | IC50 (RPMI 8226 cell line) | IC50 (U-87 MG cell line) | IC50 (Ramos cell line) | SMILES | Duration of tumor growth inhibition (A20 lymphoma) | Relative number of CD19+ and Tregs (spleen cells; after CY administration) | Relative numbers of CD4+ and CD8+ T cells in spleens and LNs (spleen cells; after CY administration) | Drop in spleen cells at low-point (spleen cells; single i.p. injection of 2 mg CY, fourth day after administration) | Resistance index (RI), HL-60/ADR (HL-60/ADR) | Resistance index (RI), MCF-7/mdr (MCF-7/mdr) | Resistance index (RI), IGROV-1/CDDP (IGROV-1/CDDP) | Resistance index (RI), CCRF-CEM/VLB (CCRF-CEM/VLB)
 |  |  |  |  |  |  |  |  |  | O=P1(N(CCCl)CCCl)NCCCO1 (stereo not shown) [CY, cyclophosphamide] | 7 to 10 days | decreased sharply | increased | 50% |  |  |  | 
20.1 ± 4.07 µM | 4.83 ± 0.96 µM | 12.1 ± 4.27 µM | micromolar to ten micromolar range | 12.5 ± 3.52 µM | 5.3 ± 2.02 µM | micromolar range |  |  |  | NCCCC[C@H](NC(=O)[C@H](Cc1c[nH]c2ccccc12)NC(=O)[C@H](CCCCN)NC(=O)[C@H](CCCCN)NC(=O)[C@@H](NC(=O)[C@H](Cc1c[nH]c2ccccc12)NC(=O)[C@H](CCCCN)NC(=O)[C@H](CCCCN)NC(=O)[C@@H](N)Cc1c[nH]c2ccccc12)C(c1ccccc1)c1ccccc1)C(N)=O [LTX-302, W-K-K-W-Dip-K-K-W-K-NH2] (H-WKKW[Dip]KKWK-NH2; N-terminus assumed) |  |  |  |  | 1.31 | 1.23 | 0.33 | 
 |  | 9.6 ± 3.73 µM | micromolar to ten micromolar range | 16.1 ± 4.86 µM |  | micromolar range | 4.01 ± 0.39 µM | 18.5 ± 4.86 µM | 3.21 ± 2.81 µM | NCCCC[C@H](NC(=O)[C@H](Cc1c[nH]c2ccccc12)NC(=O)[C@H](Cc1c[nH]c2ccccc12)NC(=O)[C@H](CCCCN)NC(=O)[C@H](CCCCN)NC(=O)[C@H](Cc1c[nH]c2ccccc12)NC(=O)[C@H](Cc1ccc(-c2ccccc2)cc1)NC(=O)[C@H](CCCCN)NC(=O)[C@@H](N)CCCCN)C(N)=O [LTX-313, K-K-Bip-W-K-K-W-W-K-NH2] (H-KK[Bip]WKKWWK-NH2; N-terminus assumed) |  |  |  |  | 1.16 | 1.24 | 0.49 | 0.76
